Biological target: T1, F508del (Homo sapiens, UniProt P13569, DEL508-508)
T1 construct: expressed in transfected cells
Assay: Protocol 2: FRET membrane potential optical assay (VIPR), identification of correction compounds
Type: cell-based
Settings: Table 3; compounds of Table 1 as modulators of CFTR activity; protocol not stated
From the text: Membrane potential optical methods for assaying F508del modulation properties of compounds.
These voltage sensitive assays are based on the change in fluorescence resonant energy transfer (FRET) between the membrane-soluble, voltage-sensitive dye, DiSBAC2(3), and a fluorescent phospholipid, CC2-DMPE, which is attached to the outer leaflet of the plasma membrane and acts as a FRET donor. Changes in membrane potential (Vm) cause the negatively charged DiSBAC2(3) to redistribute across the plasma membrane and the amount of energy transfer from CC2-DMPE changes accordingly. The changes in fluorescence emission were monitored using VIPR™ II, which is an integrated liquid handler and fluorescent detector designed to conduct cell-based screens in 96- or 384-well microtiter plates.
To identify small molecules that correct the trafficking defect associated with F508del; a single-addition HTS assay format was developed. The cells were incubated in serum-free medium for 16 hrs at 37° C. in the presence or absence (negative control) of test compound. As a positive control, cells plated in 384-well plates were incubated for 16 hrs at 27° C. to “temperature-correct” F508del. The cells were subsequently rinsed 3× with Krebs Ringers solution and loaded with the voltage-sensitive dyes. To activate F508del, 10 μM forskolin and the CFTR potentiator, genistein (20 μM), were added along with Cl^−-free medium to each well. The addition of Cl^−-free medium promoted Cl^− efflux in response to F508del activation and the resulting membrane depolarization was optically monitored using the FRET-based voltage-sensor dyes.
• Bath Solution #1: (in mM) NaCl 160, KCl 4.5, CaCl2 2, MgCl2 1, HEPES 10, pH 7.4 with NaOH. • Chloride-free bath solution: Chloride salts in Bath Solution #1 (above) are substituted with gluconate salts. • CC2-DMPE: Prepared as a 10 mM stock solution in DMSO and stored at −20° C. • DiSBAC2(3): Prepared as a 10 mM stock in DMSO and stored at −20° C. Cell Culture
NIH3T3 mouse fibroblasts stably expressing F508del are used for optical measurements of membrane potential. The cells are maintained at 37° C. in 5% CO2 and 90% humidity in Dulbecco's modified Eagle's medium supplemented with 2 mM glutamine, 10% fetal bovine serum, 1×NEAA, β-ME, 1× pen/strep, and 25 mM HEPES in 175 cm^2 culture flasks. For all optical assays, the cells were seeded at 30,000/well in 384-well matrigel-coated plates and cultured for 2 hrs at 37° C. before culturing at 27° C. for 24 hrs for the potentiator assay. For the correction assays, the cells are cultured at 27° C. or 37° C. with and without compounds for 16-24 hours.

T1 sequence (P13569 with tags, fused parts or gaps DEL508-508): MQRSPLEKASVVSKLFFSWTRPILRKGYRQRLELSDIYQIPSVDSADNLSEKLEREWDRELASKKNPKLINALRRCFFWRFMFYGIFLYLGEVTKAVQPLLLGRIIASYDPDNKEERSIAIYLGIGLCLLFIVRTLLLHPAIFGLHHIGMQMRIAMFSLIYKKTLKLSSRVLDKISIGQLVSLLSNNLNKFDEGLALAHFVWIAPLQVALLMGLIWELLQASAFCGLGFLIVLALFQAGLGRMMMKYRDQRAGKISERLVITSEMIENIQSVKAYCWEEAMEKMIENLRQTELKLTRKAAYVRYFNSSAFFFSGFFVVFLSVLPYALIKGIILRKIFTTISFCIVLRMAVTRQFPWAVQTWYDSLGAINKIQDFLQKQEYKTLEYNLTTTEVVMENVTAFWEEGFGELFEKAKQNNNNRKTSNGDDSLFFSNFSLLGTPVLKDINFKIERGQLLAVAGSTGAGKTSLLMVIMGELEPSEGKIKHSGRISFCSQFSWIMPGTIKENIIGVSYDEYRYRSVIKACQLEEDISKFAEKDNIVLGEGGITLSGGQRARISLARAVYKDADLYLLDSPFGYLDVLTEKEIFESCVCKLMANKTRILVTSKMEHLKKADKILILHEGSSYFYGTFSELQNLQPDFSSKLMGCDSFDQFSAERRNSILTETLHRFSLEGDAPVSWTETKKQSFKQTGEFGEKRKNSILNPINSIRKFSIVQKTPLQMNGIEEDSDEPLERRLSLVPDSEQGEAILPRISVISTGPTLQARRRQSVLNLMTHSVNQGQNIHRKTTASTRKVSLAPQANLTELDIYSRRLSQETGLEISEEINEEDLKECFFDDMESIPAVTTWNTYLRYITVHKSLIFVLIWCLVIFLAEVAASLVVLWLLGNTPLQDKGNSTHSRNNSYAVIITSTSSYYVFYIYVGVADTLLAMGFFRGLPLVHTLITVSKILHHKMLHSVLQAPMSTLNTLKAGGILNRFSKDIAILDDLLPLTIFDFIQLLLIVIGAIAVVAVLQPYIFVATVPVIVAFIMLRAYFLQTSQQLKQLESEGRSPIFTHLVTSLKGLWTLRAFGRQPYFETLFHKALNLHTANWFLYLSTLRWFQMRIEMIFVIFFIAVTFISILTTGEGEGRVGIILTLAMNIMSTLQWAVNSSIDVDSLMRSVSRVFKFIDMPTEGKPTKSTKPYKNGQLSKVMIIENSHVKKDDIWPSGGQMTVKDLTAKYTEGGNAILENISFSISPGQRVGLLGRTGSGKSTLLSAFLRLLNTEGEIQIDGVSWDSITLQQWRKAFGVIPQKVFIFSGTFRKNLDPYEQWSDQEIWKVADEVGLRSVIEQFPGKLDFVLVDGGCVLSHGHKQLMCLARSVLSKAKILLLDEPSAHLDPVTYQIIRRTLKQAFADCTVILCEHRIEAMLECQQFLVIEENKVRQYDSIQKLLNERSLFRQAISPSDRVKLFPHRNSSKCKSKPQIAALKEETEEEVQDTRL

Cc1cc(C)c(Cn2nc(C(C)(C)C)c(C)c2C(=O)NS(=O)(=O)c2cccc(N)c2)c(C)c1 [Compound 20, N-(3-aminophenyl)sulfonyl-5-tert-butyl-4-methyl-2-[(2,4,6-trimethylphenyl)methyl]pyrazole-3-carboxamide]
EC30: +++ (“+++” means <3 uM)

CCOC(=O)Cc1ccc(-c2cc(C(=O)NS(=O)(=O)c3ccccc3)n(Cc3c(C)cccc3C)n2)cc1 [Compound 21, ethyl 2-[4-[5-(benzenesulfonylcarbamoyl)-1-[(2,6-dimethylphenyl)methyl]pyrazol-3-yl]phenyl]acetate]
EC30: +++ (“+++” means <3 uM)

Cc1cc(C)c(Cc2ccc(C(C)(C)C)nc2C(=O)NS(=O)(=O)c2ccccc2)c(C)c1 [Compound 22, N-(benzenesulfonyl)-6-tert-butyl-3-[(2,4,6-trimethylphenyl)methyl]pyridine-2-carboxamide]
EC30: +++ (“+++” means <3 uM)

Cc1cc(C)c(Cn2c(C(=O)NS(=O)(=O)c3cc(N)ccn3)cc3ccccc32)c(C)c1 [Compound 23, N-[(4-amino-2-pyridyl)sulfonyl]-1-[(2,4,6-trimethylphenyl)methyl]indole-2-carboxamide]
EC30: ++ (“++” means between 3 uM and 10 uM)

Cc1cc(C)c(Cn2c(C(=O)NS(=O)(=O)c3ccncc3)cc3ccc(Cl)cc32)c(C)c1 [Compound 24, 6-chloro-N-(4-pyridylsulfonyl)-1-[(2,4,6-trimethylphenyl)methyl]indole-2-carboxamide]
EC30: ++ (“++” means between 3 uM and 10 uM)

Cc1cc(C)c(Cn2c(C(=O)NS(=O)(=O)c3ccncc3)cc3cc(C)ccc32)c(C)c1 [Compound 25, 5-methyl-N-(4-pyridylsulfonyl)-1-[(2,4,6-trimethylphenyl)methyl]indole-2-carboxamide]
EC30: ++ (“++” means between 3 uM and 10 uM)

Cc1cc(C)c(-c2nc(C(C)(C)C)ccc2C(=O)NS(=O)(=O)c2cccc(N)c2)c(C)c1 [Compound 26, N-(3-aminophenyl)sulfonyl-6-tert-butyl-2-(2,4,6-trimethylphenyl)pyridine-3-carboxamide]
EC30: ++ (“++” means between 3 uM and 10 uM)

COc1ccc(F)cc1-c1cc(C(=O)NS(=O)(=O)c2ccccc2)n(Cc2c(C)cccc2C)n1 [Compound 27, N-(benzenesulfonyl)-2-[(2,6-dimethylphenyl)methyl]-5-(5-fluoro-2-methoxy-phenyl)pyrazole-3-carboxamide]
EC30: +++ (“+++” means <3 uM)

Cc1cccc(C)c1Cn1nc(-c2ccc(Cl)cc2)cc1C(=O)NS(=O)(=O)c1ccccc1 [Compound 28, N-(benzenesulfonyl)-5-(4-chlorophenyl)-2-[(2,6-dimethylphenyl)methyl]pyrazole-3-carboxamide]
EC30: +++ (“+++” means <3 uM)

CCOc1ccc(-c2cc(C(=O)NS(=O)(=O)c3ccccc3)n(Cc3c(C)cccc3C)n2)cc1 [Compound 29, N-(benzenesulfonyl)-2-[(2,6-dimethylphenyl)methyl]-5-(4-ethoxyphenyl)pyrazole-3-carboxamide]
EC30: +++ (“+++” means <3 uM)

CCc1cccc2c1CN(Cc1c(C)cc(C)cc1C)C2C(=O)NS(=O)(=O)c1cccc(N)c1 (stereo not drawn) [Compound 30, N-(3-aminophenyl)sulfonyl-4-ethyl-2-[(2,4,6-trimethylphenyl)methyl]isoindoline-1-carboxamide]
EC30: +++ (“+++” means <3 uM)

Cc1cccc(-c2nc(C(C)(C)C)ccc2C(=O)NS(=O)(=O)c2cccc(N)n2)c1 [Compound 31, N-[(6-amino-2-pyridyl)sulfonyl]-6-tert-butyl-2-(m-tolyl)pyridine-3-carboxamide]
EC30: ++ (“++” means between 3 uM and 10 uM)

Cc1cc(C)c(CN2Cc3ccccc3C2C(=O)NS(=O)(=O)c2cc(N)ccn2)c(C)c1 (stereo not drawn) [Compound 32, N-[(4-amino-2-pyridyl)sulfonyl]-2-[(2,4,6-trimethylphenyl)methyl]isoindoline-1-carboxamide]
EC30: ++ (“++” means between 3 uM and 10 uM)

Cc1cc(C)c(Cn2c(C(=O)NS(=O)(=O)c3ccccc3)cc3cc(F)ccc32)c(C)c1 [Compound 33, N-(benzenesulfonyl)-5-fluoro-1-[(2,4,6-trimethylphenyl)methyl]indole-2-carboxamide]
EC30: +++ (“+++” means <3 uM)

COc1cccc(S(=O)(=O)NC(=O)c2ccc(C(C)(C)C)nc2Oc2c(C)cc(C)cc2C)n1 [Compound 34, 6-tert-butyl-N-[(6-methoxy-2-pyridyl)sulfonyl]-2-(2,4,6-trimethylphenoxy)pyridine-3-carboxamide]
EC30: +++ (“+++” means <3 uM)

CC(C)(C)c1cc(C(=O)NS(=O)(=O)c2ccccc2)n(Cc2cc(C(F)(F)F)ccc2F)n1 [Compound 35, N-(benzenesulfonyl)-5-tert-butyl-2-[[2-fluoro-5-(trifluoromethyl)phenyl]methyl]pyrazole-3-carboxamide]
EC30: +++ (“+++” means <3 uM)

COc1cccc2c1cc(C(=O)NS(=O)(=O)c1ccncc1)n2Cc1c(C)cc(C)cc1C [Compound 36, 4-methoxy-N-(4-pyridylsulfonyl)-1-[(2,4,6-trimethylphenyl)methyl]indole-2-carboxamide]
EC30: +++ (“+++” means <3 uM)

COc1cc(-c2cc(C(=O)NS(=O)(=O)c3ccccc3)n(Cc3c(C)cccc3C)n2)ccc1Cl [Compound 37, N-(benzenesulfonyl)-5-(4-chloro-3-methoxy-phenyl)-2-[(2,6-dimethylphenyl)methyl]pyrazole-3-carboxamide]
EC30: +++ (“+++” means <3 uM)

Cc1cc(C)c(Cn2c(C(=O)NS(=O)(=O)c3ccncc3)cc3ccc(C)cc32)c(C)c1 [Compound 38, 6-methyl-N-(4-pyridylsulfonyl)-1-[(2,4,6-trimethylphenyl)methyl]indole-2-carboxamide]
EC30: +++ (“+++” means <3 uM)

Cc1cc(C)c(Cn2nc(C(C)(C)C)cc2C(=O)NS(=O)(=O)c2cccc(CO)c2)c(C)c1 [Compound 39, 5-tert-butyl-N-[3-(hydroxymethyl)phenyl]sulfonyl-2-[(2,4,6-trimethylphenyl)methyl]pyrazole-3-carboxamide]
EC30: ++ (“++” means between 3 uM and 10 uM)

COc1ccccc1-c1cc(C(=O)NS(=O)(=O)c2cccc(N)c2)n(C(C)c2ccccc2)n1 (stereo not drawn) [Compound 40, N-(3-aminophenyl)sulfonyl-5-(2-methoxyphenyl)-2-(1-phenylethyl)pyrazole-3-carboxamide]
EC30: +++ (“+++” means <3 uM)

Cc1cc(C)c(Oc2nc(C(C)(C)C)ccc2C(=O)NS(=O)(=O)c2cn(C)nc2N)c(C)c1 [Compound 41, N-(3-amino-1-methyl-pyrazol-4-yl)sulfonyl-6-tert-butyl-2-(2,4,6-trimethylphenoxy)pyridine-3-carboxamide]
EC30: +++ (“+++” means <3 uM)

Cc1cc(C)c(Cn2nc(OCc3ccccc3)cc2C(=O)NS(=O)(=O)c2cccc(N)c2)c(C)c1 [Compound 42, N-(3-aminophenyl)sulfonyl-5-benzyloxy-2-[(2,4,6-trimethylphenyl)methyl]pyrazole-3-carboxamide]
EC30: ++ (“++” means between 3 uM and 10 uM)

COc1ccc(-c2cc(C(=O)NS(=O)(=O)c3ccccc3)n(Cc3c(C)cccc3C)n2)cc1F [Compound 43, N-(benzenesulfonyl)-2-[(2,6-dimethylphenyl)methyl]-5-(3-fluoro-4-methoxy-phenyl)pyrazole-3-carboxamide]
EC30: +++ (“+++” means <3 uM)

Reference: patent US10758534B2 (Vertex Pharmaceuticals Incorporated, priority 2014, dated 2020)
